Experimental data published in patent US20160220557A1, “USE OF ACETYL-COA CARBOXYLASE INHIBITORS FOR TREATING ACNE VULGARIS” (PFIZER INC., priority 2013, published 2016).

Experiments:
CYP2B6 = biological target: T1, CYP2B6 (Homo sapiens, UniProt P20813); test: P450 inhibition in liver microsomes with probe substrates; assay type: in vitro ADME
T1 construct: from tissue; host or cells: liver microsomes
T1 sequence (P20813 1-491): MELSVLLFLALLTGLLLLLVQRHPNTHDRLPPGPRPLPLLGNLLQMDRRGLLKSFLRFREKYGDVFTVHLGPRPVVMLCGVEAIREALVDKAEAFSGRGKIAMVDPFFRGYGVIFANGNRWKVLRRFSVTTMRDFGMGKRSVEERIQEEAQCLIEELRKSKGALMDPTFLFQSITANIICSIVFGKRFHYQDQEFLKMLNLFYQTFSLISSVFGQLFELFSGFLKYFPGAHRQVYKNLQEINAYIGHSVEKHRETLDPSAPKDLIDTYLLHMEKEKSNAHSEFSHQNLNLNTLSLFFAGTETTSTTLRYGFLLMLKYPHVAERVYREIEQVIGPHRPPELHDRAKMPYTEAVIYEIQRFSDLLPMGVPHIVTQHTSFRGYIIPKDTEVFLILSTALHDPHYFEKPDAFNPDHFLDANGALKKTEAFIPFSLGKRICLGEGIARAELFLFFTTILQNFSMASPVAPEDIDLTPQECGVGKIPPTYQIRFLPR

CYP2C9 = biological target: T2, CYP2C9 (Homo sapiens, UniProt P11712); test: as above; assay type: in vitro ADME
T2 construct: from tissue; host or cells: liver microsomes

[1] = in vivo
[2] = Human studies: safety, tolerability and pharmacokinetics after oral dosing; conditions: for median Tmax: oral
CYP2D6 = biological target: T3, CYP2D6 (Homo sapiens, UniProt P10635); test: P450 inhibition in liver microsomes with probe substrates; assay type: in vitro ADME
T3 construct: from tissue; host or cells: liver microsomes

CYP2C19 = biological target: T4, CYP2C19 (Homo sapiens, UniProt P33261); test: as above; assay type: in vitro ADME
T4 construct: from tissue; host or cells: liver microsomes

[3] = biological target: T5, recombinant human ACC1 (rhACC1) (Homo sapiens, UniProt Q13085, DEL44-44); test: Transcreener ADP detection FP assay, recombinant human ACC1 inhibition; assay type: biochemical; conditions: recombinant human ACC1, 50 μM ATP; read-out: Transcreener Assay hACC1 IC50
T5 construct: His6 (N); made in house; host or cells: SF9 insect cells (baculovirus)

CYP3A = CYP3A (Homo sapiens, UniProt P08684); test: in vitro; conditions: microsomes
ear skin malonyl-CoA = test: Ear skin malonyl-CoA levels in Syrian hamsters; assay type: in vivo, Syrian hamster; conditions: topical 100 mg/ml (5 ul/ear), single dose, one hour after treatment
Method: Male Syrian gold Hamster at ˜10 weeks were maintained adlibitum on standard hamster chow and water. Example 3 for topical delivery was prepared as a solution in a vehicle consisting of 70:30 (Ethanol:propylene glycol) at a concentration of 100 mg/ml. Topical administration of a single dose (5 ul/ear) was applied to hamster ears with a pipette (2-10 ul) tip adhering to 2 minute intervals following the dosing order. The dosing timing allowed for the formulation to spread evenly over an approximate 1 sq cm area and absorb/dry prior to returning the animal to the cage. […] One hour after dose administration animals were sacrificed by CO2 asphyxiation.
Briefly, ear skin samples were prepared for malonyl-CoA analysis in the following manner. One 8 mm distal biopsy punch (using a 8 mm diameter Sklar Tru-punch—Sklar Instruments) (2 per animal) was taken just above the anatomical “V” in the aural cartilage to normalize sample area. The punch was then split into 2 layers (anterior and posterior). […]
Frozen tissues were homogenized in 1 mL of 5% ice cold trichloroacetic acid using a polytron in a 2 mL polypropylene centrifuge tube. […] Tissue malonyl-CoA levels were determined by LCMS by the Metabolomics Laboratory Sanford-Burnham Medical Research Institute (Orlando, […]). Hamster ear skin malonyl-CoA levels were expressed as the percent of the vehicle control and are plotted in FIG. 6.

CYP3A, sequence (P08684 2-503): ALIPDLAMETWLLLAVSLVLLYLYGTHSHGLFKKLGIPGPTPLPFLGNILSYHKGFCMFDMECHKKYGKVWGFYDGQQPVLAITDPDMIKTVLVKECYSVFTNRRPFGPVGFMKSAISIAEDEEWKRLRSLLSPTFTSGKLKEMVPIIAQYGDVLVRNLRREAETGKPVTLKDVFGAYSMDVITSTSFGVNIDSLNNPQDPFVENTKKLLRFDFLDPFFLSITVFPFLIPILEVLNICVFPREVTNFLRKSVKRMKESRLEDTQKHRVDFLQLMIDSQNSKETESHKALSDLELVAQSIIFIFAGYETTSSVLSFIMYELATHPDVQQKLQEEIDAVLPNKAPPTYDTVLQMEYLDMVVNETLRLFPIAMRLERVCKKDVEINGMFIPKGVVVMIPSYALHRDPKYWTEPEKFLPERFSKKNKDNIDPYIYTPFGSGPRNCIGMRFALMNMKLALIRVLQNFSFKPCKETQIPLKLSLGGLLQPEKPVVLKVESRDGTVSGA
T4 sequence (P33261 whole entry): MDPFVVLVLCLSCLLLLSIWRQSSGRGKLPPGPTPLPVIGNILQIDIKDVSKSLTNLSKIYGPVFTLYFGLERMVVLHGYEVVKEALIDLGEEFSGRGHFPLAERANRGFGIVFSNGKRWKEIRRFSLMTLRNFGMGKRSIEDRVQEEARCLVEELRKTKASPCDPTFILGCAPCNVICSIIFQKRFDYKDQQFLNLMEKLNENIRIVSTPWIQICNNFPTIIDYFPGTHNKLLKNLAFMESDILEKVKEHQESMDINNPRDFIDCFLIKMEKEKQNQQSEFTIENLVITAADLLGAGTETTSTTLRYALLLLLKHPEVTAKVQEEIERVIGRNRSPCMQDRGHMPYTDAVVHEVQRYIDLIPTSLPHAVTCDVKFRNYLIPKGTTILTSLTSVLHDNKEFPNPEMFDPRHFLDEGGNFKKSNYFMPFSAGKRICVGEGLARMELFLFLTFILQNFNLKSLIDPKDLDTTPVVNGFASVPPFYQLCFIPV
T2 sequence (P11712 whole entry): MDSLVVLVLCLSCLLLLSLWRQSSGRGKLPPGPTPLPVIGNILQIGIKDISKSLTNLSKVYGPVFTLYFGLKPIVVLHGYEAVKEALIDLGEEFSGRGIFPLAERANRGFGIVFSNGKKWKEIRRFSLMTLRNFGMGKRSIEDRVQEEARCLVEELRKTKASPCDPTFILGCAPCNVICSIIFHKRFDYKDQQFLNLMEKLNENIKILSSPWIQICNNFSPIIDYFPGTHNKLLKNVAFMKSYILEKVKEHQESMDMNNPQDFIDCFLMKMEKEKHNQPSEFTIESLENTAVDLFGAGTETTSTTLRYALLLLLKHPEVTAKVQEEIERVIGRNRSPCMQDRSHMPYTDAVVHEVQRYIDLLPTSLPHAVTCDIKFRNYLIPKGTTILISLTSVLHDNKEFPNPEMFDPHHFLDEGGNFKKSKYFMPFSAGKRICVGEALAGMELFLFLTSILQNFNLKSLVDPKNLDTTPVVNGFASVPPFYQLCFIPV
T3 sequence (P10635 whole entry): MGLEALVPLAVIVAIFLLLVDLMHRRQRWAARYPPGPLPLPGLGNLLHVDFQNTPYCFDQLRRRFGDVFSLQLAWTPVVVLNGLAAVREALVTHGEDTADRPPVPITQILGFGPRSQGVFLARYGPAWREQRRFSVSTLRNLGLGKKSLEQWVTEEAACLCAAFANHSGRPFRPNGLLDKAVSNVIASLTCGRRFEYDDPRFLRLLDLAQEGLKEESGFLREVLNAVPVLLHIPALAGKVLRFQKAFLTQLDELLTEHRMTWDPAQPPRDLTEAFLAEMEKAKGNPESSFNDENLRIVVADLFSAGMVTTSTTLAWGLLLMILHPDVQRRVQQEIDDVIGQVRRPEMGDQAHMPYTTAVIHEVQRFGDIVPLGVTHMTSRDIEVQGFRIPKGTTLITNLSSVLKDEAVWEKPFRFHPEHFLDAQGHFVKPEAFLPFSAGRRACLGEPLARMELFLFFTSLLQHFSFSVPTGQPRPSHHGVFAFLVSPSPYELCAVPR

SMILES | IC50 (CYP2B6) [µM] | IC50 (CYP2C9) [µM] | exposures (AUC and Cmax) vs. dose [1] | effect of food on absorption ([1]; po) | frequency of adverse events vs. dose and duration ([1]; po) | median Tmax ([2]; fasted state) [h] | median Tmax ([2]; fed state) [h] | maximum tolerated dose ([2]; single doses up to 800 mg, repeated doses up to 400 mg/day) | IC50 (CYP2D6) [µM] | IC50 (CYP2C19) [µM] | IC50 [3] [µM] | IC50 (CYP3A) [µM] | suppression of hamster ear skin malonyl-CoA relative to vehicle (ear skin malonyl-CoA) [%]
Cc1nc2ccc(C(=O)N3CCC4(CC3)CC(=O)c3c(cnn3C(C)C)C4)cc2[nH]1 [Example 1, 1-isopropyl-1′-(2-methyl-1H-benzo[d]imidazole-5-carbonyl)-4,6-dihydrospiro[indazole-5,4′-piperidin]-7(1H)-one] | > 30 | > 30 | increased dose-proportionally | modestly decreased the rate but not the extent | no dose- or duration-related increase | 1 to 2 | 3 to 4 | not established | > 30 | > 30 | 0.098 | > 30 | 
CC(C)n1ncc2c1C(=O)CC1(CCN(C(=O)c3ccc4ccc(N)nc4c3)CC1)C2 [Example 3, 1′-(2-aminoquinoline-7-carbonyl)-1-isopropyl-4,6-dihydrospiro[indazole-5,4′-piperidin]-7(1H)-one] |  |  |  |  |  |  |  |  |  |  |  |  | 87
